Key:
[1] = Cytotoxicity against Rattus norvegicus Sprague-Dawley (rat) astrocytes after 4 days by cresylecth violet-staining method; assay type: cell-based, Astrocyte
[2] = system: C6; experiment: Cytotoxicity against Rattus norvegicus (rat) C6 cells after 4 days by cresylecth violet-staining method; assay type: functional, cell-based
[3] = system: C6; experiment: Ratio of EDL-155 EC50 to compound EC50 for Rattus norvegicus (rat) C6 cells; assay type: functional
[4] = Rattus norvegicus, Sprague-Dawley, Astrocyte, 96 h, read-out: EC50

Row | SMILES | EC50 ([2]; Rattus norvegicus, C6, 96 h) [µM] | EC50 [1, 4] [µM] | further results
1 | COc1cc2c(c(OC)c1)C(Cc1ccc(-c3ccccc3)cc1)N(C(=O)OC(C)(C)C)CC2 (stereo not drawn) | 7.54 |  | EC50 ([1]; astrocyte): Not Active
2 | COc1cc2c(c(OC)c1)C(Cc1ccc(-c3ccccc3)cc1)NCC2 (stereo not drawn) | 2.31 | 8.95 | 
3 | Oc1cc(O)c2c(c1)CCNC2Cc1ccc(-c2ccccc2)cc1 (stereo not drawn) | 2.09 | 11.9 | 
4 | CC(C)(C)OC(=O)N1CCc2cc(O)cc(O)c2C1Cc1ccc(-c2ccccc2)cc1 (stereo not drawn) | 4.97 | 8.58 | 
5 | COc1cc2c(c(OC)c1)C(Cc1ccc(Br)cc1)N(C(=O)OC(C)(C)C)CC2 (stereo not drawn) | 10.1 | 28.1 | 
6 | Oc1cc(O)c2c(c1)CCNC2Cc1ccc(Br)cc1 (stereo not drawn) | 12.6 | 23.9 | 
7 | CC(C)(C)OC(=O)N1CCc2cc(O)cc(O)c2C1Cc1ccc(Br)cc1 (stereo not drawn) | 7.04 | 9.97 | 
8 | COc1ccccc1-c1ccc(CC2c3c(O)cc(O)cc3CCN2C(=O)OC(C)(C)C)cc1 (stereo not drawn) | 7.34 | 67.5 | 
9 | COc1ccccc1-c1ccc(CC2NCCc3cc(O)cc(O)c32)cc1 (stereo not drawn) | 2.61 | 15.7 | 
10 | COc1cc2c(c(OC)c1)C(Cc1ccc(-c3ccccc3OC)cc1)N(C(=O)OC(C)(C)C)CC2 (stereo not drawn) | 59.7 |  | EC50 ([1]; astrocyte): Not Active
11 | Oc1cc2c(cc1O)C(Cc1ccc(-c3ccccc3)cc1)NCC2 (racemic) | 1.5 | 27.4 | 
12 | COc1cc2c(c(OC)c1)C(Cc1ccc(-c3ccccc3OC)cc1)NCC2 (single isomer, unassigned; (+)) |  |  | EC50 ([1]; astrocyte, read-out: EC50): 13.1 µM; EC50 ([2]; c6): 0.26 µM
13 | COc1cc2c(c(OC)c1)C(Cc1ccc(-c3ccccc3OC)cc1)NCC2.Cl (stereo in doubt; 25) |  |  | Ratio EC50 [3]: 2.4; EC50 ([1]; astrocyte, read-out: EC50): 10.8 µM; EC50 ([2]; c6): 0.63 µM
14 | COc1cc2c(c(OC)c1)C(Cc1ccc(-c3ccccc3OC)cc1)NCC2 (stereo in doubt; (-)25) |  | 15.7 | EC50 ([2]; c6): 5.39 µM
15 | O=NN(CCCl)C(=O)NCCCl [CARMUSTINE] | 4.8 | 54.8 | 
16 | Cn1nnc2c(C(N)=O)ncn2c1=O [TEMOZOLOMIDE] | 16.5 | 51.8 | 

— ChEMBL document CHEMBL3045681, “Synthesis and evaluation of new 1,2,3,4-tetrahydroisoquinoline analogs as antiglioma agents” (Med Chem Res, 2011)
